Assay results published in patent publication US20160002248A1, “GLS1 INHIBITORS FOR TREATING DISEASE” (Board of Regents, The University of Texas System, priority 2014, published 2016).

Legend:
[1] = target: T1, purified recombinant human GAC (GLS1) (Homo sapiens, UniProt O94925); assay: GLS1 Enzymatic Activity Assay (dual-coupled enzymatic assay); format: biochemical
T1 sequence (O94925 55-598 isoform O94925-3 limits assumed): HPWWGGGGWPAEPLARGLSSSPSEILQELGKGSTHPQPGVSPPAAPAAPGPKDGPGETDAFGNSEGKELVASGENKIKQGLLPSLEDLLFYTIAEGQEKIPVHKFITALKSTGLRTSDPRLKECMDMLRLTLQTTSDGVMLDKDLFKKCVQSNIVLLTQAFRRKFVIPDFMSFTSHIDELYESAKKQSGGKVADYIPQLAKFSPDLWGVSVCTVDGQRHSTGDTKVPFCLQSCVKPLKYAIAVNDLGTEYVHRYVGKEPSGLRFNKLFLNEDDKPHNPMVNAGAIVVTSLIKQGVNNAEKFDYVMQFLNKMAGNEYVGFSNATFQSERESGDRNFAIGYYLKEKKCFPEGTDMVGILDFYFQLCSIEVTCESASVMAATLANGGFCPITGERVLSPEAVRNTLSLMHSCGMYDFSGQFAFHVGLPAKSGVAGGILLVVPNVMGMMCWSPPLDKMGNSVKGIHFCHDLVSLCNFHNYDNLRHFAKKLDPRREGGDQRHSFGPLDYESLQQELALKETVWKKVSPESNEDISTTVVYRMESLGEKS
Outline: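 In this coupled fluorometric format, phosphate-activated GAC (2 nM, 50 mM phosphate) is pre-exposed to compound for 10 min before 1 mM glutamine addition. Product is tracked as resorufin (530/590 nm) over time or at 20 min, and potency is derived by logistic fitting.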

[2] = tested on: A549 cells; assay: Proliferation Assay (A549 cell viability, Cell Titer Fluor); format: cell-based; conditions: Homo sapiens, 72 hours
Outline: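 Seed A549 at 1000 cells/well and culture 24 h. Add compound (final DMSO 0.5%) and incubate 72 h at 37 °C. Add Cell Titer Fluor, mix 15 min, incubate 30 min, read fluorescence and fit EC50 by four-parameter logistic.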

Structure (SMILES) | IC50 [1] [µM] | EC50 [2] [µM]
COc1cccnc1-c1c(C2CC2)[nH]c2nnc(CCCCn3cc(C(=O)NCc4cccc(OC(F)(F)F)c4)nn3)cc12 [Example 178, 1-{4-[6-cyclopropyl-5-(3-methoxypyridin-2-yl)-7H-pyrrolo[2,3-c]pyridazin-3-yl]butyl}-N-{[3-(trifluoromethoxy)phenyl]methyl}-1H-1,2,3-triazole-4-carboxamide] | < 0.1 | 0.1 to 0.5
NS(=O)(=O)c1cccc(-c2c(C3CC3)[nH]c3nnc(CCCCn4cc(C(=O)NCc5cccc(OC(F)(F)F)c5)nn4)cc23)c1 [Example 181, 1-{4-[6-cyclopropyl-5-(3-sulfamoylphenyl)-7H-pyrrolo[2,3-c]pyridazin-3-yl]butyl}-N-{[3-(trifluoromethoxy)phenyl]methyl}-1H-1,2,3-triazole-4-carboxamide] | < 0.1 | 0.5 to 5
Cc1ccc(CNC(=O)c2cn(CCCCc3cc4cc(-c5ccc(F)cc5F)[nH]c4nn3)nn2)cn1 [Example 183, 1-{4-[6-(2,4-difluorophenyl)-7H-pyrrolo[2,3-c]pyridazin-3-yl]butyl}-N-[(6-methylpyridin-3-yl)methyl]-1H-1,2,3-triazole-4-carboxamide] | < 0.1 | 0.1 to 0.5
O=C(NCc1cc(C(F)(F)F)ccn1)c1cn(CCCCc2cc3c(-c4ccoc4)c(C4CC4)[nH]c3nn2)nn1 [Example 184, 1-{4-[6-cyclopropyl-5-(furan-3-yl)-7H-pyrrolo[2,3-c]pyridazin-3-yl]butyl}-N-{[4-(trifluoromethyl)pyridin-2-yl]methyl}-1H-1,2,3-triazole-4-carboxamide] | < 0.1 | < 0.1
CC(C)COC(=O)N1CC(c2cc3cc(CCCCn4cc(C(=O)NCc5cc(OC(F)(F)F)ccc5F)nn4)nnc3[nH]2)C1 [Example 185, 2-methylpropyl 3-(3-{4-[4-({[2-fluoro-5-(trifluoromethoxy)phenyl]methyl}carbamoyl)-1H-1,2,3-triazol-1-yl]butyl)-7H-pyrrolo[2,3-c]pyridazin-6-yl)azetidine-1-carboxylate] | < 0.1 | < 0.1
O=C(NCc1cccc(C(F)(F)F)n1)c1cn(CCCCc2cc3c(-c4ccoc4)c(C4CC4)[nH]c3nn2)nn1 [Example 186, 1-{4-[6-cyclopropyl-5-(furan-3-yl)-7H-pyrrolo[2,3-c]pyridazin-3-yl]butyl}-N-{[6-(trifluoromethyl)pyridin-2-yl]methyl}-1H-1,2,3-triazole-4-carboxamide] | < 0.1 | < 0.1

The next lines start with the values.

IC50 [1] [µM] | EC50 [2] [µM] | Structure (SMILES)
< 0.1 | 0.5 to 5 | CC(=O)Nc1ccc(-c2c(C3CC3)[nH]c3nnc(CCCCn4cc(C(=O)NCc5ccc(C)nc5)nn4)cc23)cc1 [Example 179, 1-{4-[6-cyclopropyl-5-(4-acetamidophenyl)-7H-pyrrolo[2,3-c]pyridazin-3-yl]butyl}-N-[(6-methylpyridin-3-yl)methyl]-1H-1,2,3-triazole-4-carboxamide]
< 0.1 | 0.5 to 5 | CC(=O)Nc1ccc(-c2c(C3CC3)[nH]c3nnc(CCCCn4cc(C(=O)NCc5cccc(OC(F)(F)F)c5)nn4)cc23)cc1 [Example 180, 1-{4-[6-cyclopropyl-5-(4-acetamidophenyl)-7H-pyrrolo[2,3-c]pyridazin-3-yl]butyl}-N-{[3-(trifluoromethoxy)phenyl]methyl}-1H-1,2,3-triazole-4-carboxamide]
< 0.1 | 0.1 to 0.5 | Cc1ccc(CNC(=O)c2cn(CCCCc3cc4cc(-c5ccc(OC(F)(F)F)cc5)[nH]c4nn3)nn2)cn1 [Example 182, N-[(6-methylpyridin-3-yl)methyl]-1-(4-{6-[4-(trifluoromethoxy)phenyl]-7H-pyrrolo[2,3-c]pyridazin-3-yl}butyl)-1H-1,2,3-triazole-4-carboxamide]
< 0.1 | 0.1 to 0.5 | O=C(NCc1ccc(C(F)(F)F)cn1)c1cn(CCCCc2cc3c(-c4ccoc4)c(C4CC4)[nH]c3nn2)nn1 [Example 187, 1-{4-[6-cyclopropyl-5-(furan-3-yl)-7H-pyrrolo[2,3-c]pyridazin-3-yl]butyl}-N-{[5-(trifluoromethyl)pyridin-2-yl]methyl}-1H-1,2,3-triazole-4-carboxamide]
